Measurements: patent US6168809A, “Alkaline-earth metal salt for the treatment of ocular or palpebral pruritus and dysesthesia” (Societe l'Oreal S.A., priority 1995, dated 2001)

What was measured:
[1] = test system: TNF-alpha secretion by human monocytes (line U937); experiment: inhibition of secretion of TNF-alpha induced by PMA in human monocytes (line U937); type: cell-based; conditions: for % inhibition of secretion of TNF-alpha induced by PMA: PMA 10 nM, 48 hours, 37° C., mean of 3 measurements; for inhibition of TNF-alpha: in words
Description: This test is performed on human monocytes (line U937) stimulated by a phorbol ester (PMA) according to the method described by Schindler et al. (Correlations and interactions in the production of interleukin-6 (IL-6), IL-1, and Tumor Necrosis Factor (TNF) in human blood mononuclear cells: IL-6 suppresses IL-1 and TNF. Blood 75: 40-47 (1990)).
The phorbol ester (PMA) naturally stimulates the synthesis and/or the secretion of TNF-alpha by human monocytes in culture.
The activity of the molecules is evaluated according to their capacity to reduce or even suppress this TNF-alpha secretion.
The cells (monocytes) are incubated in the presence of PMA at the concentration of 10 nM for 48 hours at 37° C. The quantities of TNF-alpha secreted are quantified by immunoenzymatic assay (ECA) with the aid of commercially available kits.
Each molecule is tested at 3 different concentrations (10^-5, 10^-4 and 10^-3 M) and in each experiment, a reference molecule (dexamethasone) is studied at 7 concentrations as internal standard.
The results are expressed as percentage of inhibition relative to the positive control (without test molecule) after subtracting the background noise. A recapitulative table groups together the mean inhibitory effects obtained with the compounds. (The results are expressed as % inhibition; they are the mean of 3 measurements).

[2] = test system: release of substance P; experiment: release of substance P caused by antidromic stimulation of the sciatic nerve, visualized by Evans blue staining; type: in vivo
Source text: The test consisted in determining the activity of various compounds on the release of substance P, which is caused by antidromic stimulation of the sciatic nerve. This release is visualized by staining with a stain (Evans blue). The greater the quantity of substance P released, the more intense the colour. In other words, the greater the inhibitory effect of the substance P antagonist on this release, the less intense the colour.

Compound	% inhibition of secretion of TNF-alpha induced by PMA ([1]; 10^-3 M) [%]	% inhibition of secretion of TNF-alpha induced by PMA ([1]; 10^-4 M) [%]	inhibition of TNF-alpha [1]	% inhibition of secretion of TNF-alpha induced by PMA ([1]; 10^-5 M) [%]	inhibitory activity on the release of substance P ([2]; Table 1, in words, salts at the same concentration)	inhibitory activity on the release of substance P ([2]; Table 2, in words, calcium salt at a higher concentration level)	% inhibition relative to the control ([2]; Table 2, 3 μmol) [%]
[Cl-].[Cl-].[Mg+2] [Mg Cl2, magnesium chloride]	70	12	inhibitors of TNF-alpha	–	–	–	–
[Cl-].[Cl-].[Sr+2] [SrCl2, strontium chloride]	–	–	inhibitors of TNF-alpha	–	–	–	–
O.O.O.O.O.O.O.[Cl-].[Cl-].[Sr+2] [SrCl2 7H2O]	54	–	–	14	–	–	–
[Ca+2].[Cl-].[Cl-] [CaCL2.7H2 O, calcium chloride]	67	22	inhibitors of TNF-alpha	19	–	–	–
O=[N+]([O-])[O-].O=[N+]([O-])[O-].[Ca+2] [Ca(NO3)2, calcium nitrate]	–	–	–	–	no activity at all	no activity at all	–
O=[N+]([O-])[O-].O=[N+]([O-])[O-].[Sr+2] [Sr(NO3)2, strontium nitrate]	75	28	inhibitors of TNF-alpha	–	–	–	71
